This is an account of results in publication PMC7728754, “MRI-based molecular imaging of epicardium-derived stromal cells (EpiSC) by peptide-mediated active targeting” (Scientific Reports, 2020).

Series [1] has as its system cultured EpiSCs. The series is described as follows: Flow cytometry binding of FAM-labelled EPs to cultured EpiSCs. The following applies: 5 µg/ml FAM-labelled peptide, up to 120 min, 37 °C, n = 5. It counts as cell-based, rat. As to the method: EpiSCs were detached from the cell culture flask with PBS-EDTA (5 mM) and resuspended in DMEM at a concentration of 0.5 × 10^6 cells/ml. Cell suspensions were incubated with 5 µg/ml of EP1, EP2, EP3, EP7 and EP9 for up to 120 min at 37 °C. After 10, 20, 40, 80 and 120 min, samples were transferred into tubes containing ice-cold MACS buffer (PBS, 2% FCS, 1 mM EDTA) to stop the reaction. Cells were centrifuged for 5 min at 500 × g and 4 °C, washed twice and finally suspended in MACS buffer with DAPI (4′,6-Diamidino-2-phenylindole dihydrochloride; 1 µg/ml) to label dead cells. Flow cytometric analysis was performed on a BD FACS Canto II (BD Biosciences, Heidelberg, Germany).
On the technique in general: Flow cytometry measures light scatter and fluorescence of single cells or particles in a stream.

A further series concerns THP-1 monocytes. As to the kind of experiment: Surface plasmon resonance, THP-1 monocytes over immobilized EP9. The series is classed as binding, human. The following applies: SPR, CM5 chip, 30 µl/min, 25 °C, PBS, negative control cells. The protocol:
(§1) To analyse the interaction kinetics between peptide EP9 and EpiSCs, we used a BIAcore X100 system equipped with a CM5 sensor chips (GE Healthcare GmbH, Solingen, Germany). EP9 peptide was immobilized to the surface of the CM5 chip (600 µg/ml; 30 µl/min) using a thiol coupling chemistry (GE Healthcare GmbH). Presence of a free SH group at the C-terminal of EP9 peptide enabled us to efficiently immobilize it through a thiol coupling procedure. Afterward, EpiSCs and THP-1 monocytes (ATCC: TIB-202; 10,000 cells/µl) were injected over the sensor chip to monitor the association between immobilized EP9 peptide and the cells. After injection of the cells, dissociation phase was monitored by introduction of buffer for a period of 300 s. In another experimental strategy, increasing numbers of EpiSCs (200, 400 and 800 × 10^3) were flushed over the immobilized peptide EP9 with a flow rate of 30 µl/min and dissociation was measured for an identical period of time. Finally, to block the EP9 binding sites, EpiSCs were pre-incubated for 30 min with 5 µg of EP9 before injection into the BIAcore system and subjected to the same procedure as described above. All SPR experiments were carried out at 25 °C in PBS.
(SPR reads the build-up and loss of mass on a sensor chip optically.)

Another series has as its system EpiSCs. As to the kind of experiment: Surface plasmon resonance, EpiSCs over immobilized EP9. It counts as binding, rat. As to conditions: SPR, 25 °C, PBS. As to the method:
as §1

For series [2], the system named is cultured EpiSCs. As to the kind of experiment: Impact of storage on EP9/EP9PFC targeting efficacy. It counts as cell-based, rat. As to conditions: stored in phosphate buffer at 4 °C for 24 h, then 30 min at 37 °C on cultured EpiSCs, flow cytometry, n = 3. As to the method:
EP9 and ^EP9PFCs were stored in phosphate buffer at 4 °C for 6 h and 24 h. Subsequently EP9 and ^EP9PFCs were incubated on cultured EpiSCs for 30 min at 37 °C. Cells were washed twice with MACS buffer and then analyzed by flow cytometry.

For the next series, the system named is EpiSC and THP-1 cells. As to the kind of experiment: Cytotoxicity by DAPI flow cytometry. It counts as cell-based. The following applies: 200 µl of cells + 5 µl EP9PFCs or 1.9 µg EP9, up to 120 min, 37 °C, n = 3. The protocol:
EpiSC and THP-1 cells were incubated with EP9 peptide or ^EP9PFCs (200 µl of cells + 5 µl ^EP9PFCs or 1.9 µg EP9) over a period of 120 min at 37 °C. Samples were withdrawn after 0 min, 15 min, 30 min, 60 min and 120 min and analyzed by flow cytometry. Cells were stained with DAPI (1 µg/ml) to label dead cells.

Series [3] deals with primary human CD14+ monocytes. As to the kind of experiment: Flow cytometry binding of EP9 to primary human monocytes. It counts as cell-based. As to conditions: 1.9 µg EP9 in 600 µl cell suspension, up to 45 min, 37 °C, n = 4 (Fig. S3). The protocol: Blood was withdrawn from healthy human volunteers by venous puncture and 10 ml of whole blood were mixed with 10 ml of PBS and gently laid on top of Histopaque-1077 (Sigma-Aldrich Chemie GmbH). After density centrifugation, the PBMC layer was diluted 1:1 with PBS and a centrifugation step was performed. The cell pellet was subjected to erythrocyte lysis using hypotonic buffer for 10 min at 4 °C. After centrifugation, the cells were resuspended in 8.5 ml DMEM. The cell suspension (600 µl) was incubated with 1.9 µg of EP9 for 45 min, at 37 °C. After 5, 15 and 45 min, samples were transferred into ice cold MACS buffer to stop the reaction and centrifuged for 5 min at 500 × g. Cells were washed with MACS buffer, resuspended in CD14-PE/Cy7 (PE/Cy7 anti-human CD14, Clone 63D3, BioLegend, San Diego, USA) antibody solution and incubated for 30 min at 4 °C. Flow cytometric analysis was performed after two washing steps and suspension in MACS buffer with DAPI (1 µg/ml) using a BD FACS Canto II.

“Also recorded” adds a separate entry of the source.

For the substance ATKTIAP [EP2], the “Binding to cultured EpiSCs” value in the series on cultured EpiSCs [1] was “strong binding”.
As for KLMLPRP [EP9], the “Association of THP-1 monocytes to immobilized peptide” value in the series with THP-1 monocytes was “only minor association”. In addition, the “Association of EpiSCs to immobilized peptide” value in the series on EpiSCs (CM5 chip, thiol coupling, 30 µl/min) is given as “rapidly associated”. Moreover, the Dissociation rate with EpiSCs (EpiSCs over thiol-immobilized EP9, 30 µl/min) is 0.005 s⁻¹. Further, in the series with cultured EpiSCs [2], the “Cellular labelling of EpiSCs after storage” value is on record as “severely reduced”. In addition, in the series on EpiSC and THP-1 cells, the Acute cytotoxic effects entry was “did not find evidence for acute cytotoxic effects”. For the same substance, the “Binding to cultured EpiSCs” value in the series on cultured EpiSCs [1] is reported as “strong binding; also recorded: best binding properties”. Further, in series [3], the “Binding to primary monocytes” value is given as “not detectable”.
In the case of QSHALMA [EP7], the “Binding to cultured EpiSCs” value in the series with cultured EpiSCs [1] is “strong binding”.
On to SEPIVPL [EP1], for which, in the series on cultured EpiSCs [1], the “Binding to cultured EpiSCs” value is reported as “strong binding”.
For the substance THVYRDE [EP3], the “Binding to cultured EpiSCs” value in the series on cultured EpiSCs [1] is “strong binding”.
